# From article PMC5085761 (International Journal of Molecular Sciences, 2016)
# Molecular target: T1, OATP1B3 (Homo sapiens, UniProt Q9NPD5)
# T1 construct: host or cells: HEK293
# T1 sequence (Q9NPD5 1-702): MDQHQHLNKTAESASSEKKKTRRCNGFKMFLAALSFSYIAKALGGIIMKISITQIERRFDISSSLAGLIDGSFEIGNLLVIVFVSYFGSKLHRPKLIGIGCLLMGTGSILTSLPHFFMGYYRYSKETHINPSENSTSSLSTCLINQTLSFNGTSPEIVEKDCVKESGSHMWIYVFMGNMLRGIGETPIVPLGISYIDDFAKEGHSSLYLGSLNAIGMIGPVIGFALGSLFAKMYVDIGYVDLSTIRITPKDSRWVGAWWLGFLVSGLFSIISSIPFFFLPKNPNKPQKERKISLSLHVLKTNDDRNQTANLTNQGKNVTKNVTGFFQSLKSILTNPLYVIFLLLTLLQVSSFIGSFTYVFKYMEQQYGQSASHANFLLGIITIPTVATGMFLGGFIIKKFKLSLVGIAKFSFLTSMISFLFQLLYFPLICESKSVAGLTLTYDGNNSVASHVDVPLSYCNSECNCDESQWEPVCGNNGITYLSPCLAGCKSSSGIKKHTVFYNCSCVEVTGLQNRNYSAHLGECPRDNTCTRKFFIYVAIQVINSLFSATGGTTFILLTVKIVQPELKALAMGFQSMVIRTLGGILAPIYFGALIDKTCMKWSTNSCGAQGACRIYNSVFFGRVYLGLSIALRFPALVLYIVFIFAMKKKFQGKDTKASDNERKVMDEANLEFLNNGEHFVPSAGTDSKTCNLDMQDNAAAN
# Test: Inhibition of tracer uptake in OATP1B3-expressing cells
# Type: in vitro ADME
# Conditions: OATP1B3, tracer [3H]E2G 0.1 µM, 100 µM–10 mM fluciclovine
# Procedure: For the SLC transporter experiments, Mock Flp-in-293 cells (Flp/mock), OAT1-expressing Flp-in-293 cells (Flp/OAT1), mock HEK293 cells (HEK/mock), and OATP1B3-expressing HEK293 cells (HEK/OATP1B3) were obtained from Kanazawa University (Ishikawa, Japan). Briefly, Flp-in-293 and HEK293 cells were transfected with the appropriate plasmid DNA and selected using antibiotics (hygromycin or G-418). All cell lines were cultured in DMEM (Life Technologies Japan) supplemented with 10% (v/v) fetal bovine serum (American Type Culture Collection) and antibiotics (100 U/mL penicillin and 100 μg/mL streptomycin (Life Technologies Japan) for mock cells, 0.2 mg/mL hygromycin for Flp/OAT1 cells, and 1.2 mg/mL G-418 (Roche Diagnostics K.K., Tokyo, Japan) for HEK/OATP1B3 cells) at 37 °C under an atmosphere containing 5% CO2. […]
# The experiments were performed as described previously, with minor modifications. […] The cells were lysed in 0.3 mL of 0.1N NaOH at room temperature, after which the radioactivity of each aliquot was measured as described above. The protein concentration of the cell lysate was determined with a VersaMax microplate reader (Molecular Devices Japan K.K., Osaka, Japan) or SpectraMax i3x (Molecular Devices Japan K.K.; only for OATP1B1) using a BCA Protein Assay Kit (Thermo Fisher Scientific, Kanagawa, Japan). Tracer uptake was expressed as pmol/mg protein. […]
structure (smiles),measurement,value
N[C@]1(C(=O)O)C[C@@H](F)C1 [fluciclovine],inhibition by fluciclovine at millimolar concentrations observed,not
